Columns and labels:
[1] = Cytotoxicity against human DLD1 cells assessed as cell viability after 48 hrs by MTT assay; format: functional, cell-based; details: DLD-1, 48 h
[2] = Cytotoxicity against human HCT8 cells assessed as cell viability after 48 hrs by MTT assay; format: functional, cell-based; details: HCT-8, 48 h
HCT-116 = experiment: Cytotoxicity against human HCT116 cells assessed as cell viability after 48 hrs by MTT assay; format: functional, cell-based; details: HCT-116, 48 h
[3] = Retention time of the compound by HPLC method; format: physicochemical

Retention_time [3] [min] | SMILES | IC50 [1] [µM] | IC50 [2] [µM] | IC50 (HCT-116) [µM]
 | COC(=O)CC[C@@H](C)[C@H]1CC[C@H]2[C@@H]3CC[C@@H]4C[C@H](OC(=O)CN5CCNCC5)CC[C@]4(C)[C@H]3CC[C@]12C | 118 | 115 | 102
28.63 | COC(=O)CC[C@@H](C)[C@H]1CC[C@H]2[C@@H]3CC[C@@H]4C[C@H](OC(=O)CN5CCSCC5)CC[C@]4(C)[C@H]3CC[C@]12C.Cl | 163 | 130 | 87.3
7.9 | COC(=O)CC[C@@H](C)[C@H]1CC[C@H]2[C@@H]3CC[C@@H]4C[C@H](OC(=O)C[n+]5ccc(N(C)C)cc5)CC[C@]4(C)[C@H]3CC[C@]12C.[Cl-] | 17 | 59.1 | 13.2
24.17 | COC(=O)CC[C@@H](C)[C@H]1CC[C@H]2[C@@H]3CC[C@@H]4C[C@H](OC(=O)CN5CCOCC5)CC[C@]4(C)[C@H]3CC[C@]12C.Cl | 176 | 121 | 89
7.94 | COC(=O)CC[C@@H](C)[C@H]1CC[C@H]2[C@@H]3CC[C@@H]4C[C@H](OC(=O)C[N+](C)(C)C)CC[C@]4(C)[C@H]3CC[C@]12C.[Cl-] | 53 | 37 | 38.1

Source: ChEMBL document CHEMBL3621166, “Synthesis, Structure-Activity Relationship, and Mechanistic Investigation of Lithocholic Acid Amphiphiles for Colon Cancer Therapy” (Medchemcomm, 2015)
